Patent publication US20120315658A1, “AMELIORATION OF METABOLIC SYNDROME USING PHYSIOLOGICAL FUNCTIONS OF SPHINGOMYELIN SYNTHASE SMS2, OR SCREENING METHODS FOR AMELIORATING AGENTS” (Shionogi & Co., Ltd., priority 2009, published 2012)

Test system: ZS2/SMS2 cells
Test: Me beta CD sensitivity test with Myriocin, viable cell number by WST-8
Assay type: cell-based, mouse
Conditions: for effect of added lipid on cell growth inhibitory effects caused by Myriocin: Myriocin + ceramide (10 microM) or sphingomyelin (15 microM)
Protocol: 1×10^6 MEF cells are washed, and resuspended in 1 ml of serum-free RPMI 1640 medium, and treated with an appropriate concentration of Me beta CD, and cultured in 5% CO2, 37 degrees Celsius for five minutes. After 2 ml of normal medium containing myriocin are added thereto, and the cells are cultured for additional 12 hours. A reagent for measuring viable cell number containing WST-8 (Nakalai Tesque) may be used to measure survival rate of the cells.
More specifically, ZS2/SMS2 cells prepared in Example 2 are placed in 48-well plate dish at 5000 cells/0.2 ml/well (N=3). For cell culture, 0.3% FCS/OPTIPRO SFM (GIBCO) was used. In this case, Myriocin (Final concentration 5 microM) is added, or alternatively, Myriocin+ceramide (10 microM) or Myriocin+sphingomyelin (15 microM) were added thereto. Me beta CD was added at the final concentration of 2 mM, and further cultured in 5% CO2, 37 degrees Celsius for sixteen hours. A reagent for measuring viable cell number containing WST-8 (DOJINDO) was added at 10 microliter/well and further cultured in 5% CO2, 37 degrees Celsius for one hour (WST assay). The viable cell numbers were counted according to the protocol. Y axis represents a numerical value when the average value is deemed to be 100% amongst the cases in the presence and absence of Myriocin, when Me beta CD is not placed therein.

CCCCCCC(=O)CCCCCC/C=C/C[C@@H](O)[C@H](O)[C@@](N)(CO)C(=O)O [Myriocin]
further reduction of cell growth by addition of Myriocin (2 mM Me beta CD, sixteen hours, Myriocin printed as 2 mM): about 20% | viable cell number, presence versus absence of Myriocin (Me beta CD not placed therein, Myriocin 5 microM): not significant difference

ceramide
effect of added lipid on cell growth inhibitory effects caused by Myriocin (2 mM Me beta CD): almost completely inhibited the cell growth inhibitory effects caused by Myriocin

methyl-beta-cyclodextrin [Me beta CD]
reduction of cell growth by Me beta CD (2 mM Me beta CD, sixteen hours, no Myriocin): about 50%

sphingomyelin [SM]
effect of added lipid on cell growth inhibitory effects caused by Myriocin (2 mM Me beta CD): almost completely inhibited the cell growth inhibitory effects caused by Myriocin
